In paper PMC7269503 (Antimicrobial Agents and Chemotherapy, 2020):
≈ marks a conversion by molar mass, not a printed value. Where “and” joins values, the source holds several entries; their conditions need not be identical. Equal entries are not always repeated. Where two headings read alike, the source gives them in different places.

Assays:
[1] = lungs of mice; cited from earlier work
M. tuberculosis Kurono [2] = type: in vivo; conditions: oral 5 days per week, 4 weeks; OPC-167832 0.625, DMD 0.625, BDQ 5, LVX 300, LZD 100 mg/kg
[3] = test system: M. tuberculosis ATCC 35812 (Kurono); test: MIC by agar proportion method, standard strain; type: cell-based; conditions: Mycobacterium tuberculosis, ATCC35812; ATCC 35812 (Kurono); agar proportion method; read-out: MIC
[4] = test system: M. tuberculosis ATCC 35837 (H37Rv EMB-R); test: MIC by agar proportion method, standard strain; type: cell-based; conditions: Mycobacterium tuberculosis; […]; agar proportion method; read-out: MIC
[5] = test system: M. tuberculosis ATCC 35820 (H37Rv SM-R); test: MIC by agar proportion method, standard strain; type: cell-based; conditions: Mycobacterium tuberculosis; […]; agar proportion method; read-out: MIC
[6] = test system: clinically isolated M. tuberculosis strains; type: cell-based; conditions: summary in abstract
[7] = test system: growing M. tuberculosis H37Rv; type: cell-based
[8] = test system: 27 strains of M. tuberculosis; test: Checkerboard agar dilution assay; type: cell-based; conditions: combined with DMD, MXF, LVX, BDQ, or LZD
Protocol: FIG 4 In vitro combination effects of OPC-167832 and other anti-TB agents (checkerboard assay). The in vitro combination effects of OPC-167832 and existing anti-TB agents against 27 strains of M. tuberculosis were examined by the checkerboard agar dilution method. CI, confidence interval.
The checkerboard procedure was performed using the MICs of tested agents against the bacterial strains established by an agar dilution method reported previously ([36]). The level of synergy was determined by calculating the FIC index based on the following formulas: ΣFIC = FIC of compound A + FIC of compound B; FIC of compound A = MIC of compound A in combination ÷ MIC of compound A alone; FIC of compound B = MIC of compound B in combination ÷ MIC of compound B alone. The average ΣFIC value was interpreted using the European Committee on Antimicrobial Susceptibility Testing criteria ([37]) with the following values: ≤0.5, synergy; >0.5 to 1, additive effect; >1 to 2, indifference; >2, antagonism). The averages of the ΣFIC values and the 95% confidence intervals for the tested bacterial strains were calculated.

[9] = test system: M. tuberculosis ATCC 35838 (H37Rv RIF-R); test: MIC by agar proportion method, standard strain; type: cell-based; conditions: Mycobacterium tuberculosis; […]; agar proportion method; read-out: MIC
M. africanum ATCC 25420 = test: MIC by agar proportion method, standard strain; type: cell-based; conditions: ATCC25420; M. africanum ATCC 25420; agar proportion method; read-out: MIC
M. caprae ATCC BAA-824 = test: MIC by agar proportion method, standard strain; type: cell-based; conditions: ATCCBAA824; M. caprae ATCC BAA-824; agar proportion method; read-out: MIC
[10] = lung
M. bovis ATCC BAA-935 = test: microbe, parasite or virus in culture; type: cell-based; conditions: Mycobacterium tuberculosis variant bovis, ATCCBAA935
[11] = test system: M. tuberculosis ATCC 35828 (H37Rv PZA-R); test: MIC by agar proportion method, standard strain; type: cell-based; conditions: Mycobacterium tuberculosis; […]; agar proportion method; read-out: MIC
[12] = test system: intracellular M. tuberculosis Kurono; test: microbe, parasite or virus in culture; type: cell-based
[13] = test system: M. tuberculosis ATCC 27294 (H37Rv); test: MIC by agar proportion method, standard strain; type: cell-based; conditions: Mycobacterium tuberculosis; ATCC 27294 (H37Rv); agar proportion method; […]; read-out: MIC
[14] = test system: M. pinnipedii ATCC BAA-688; test: MIC by agar proportion method, standard strain; type: cell-based; conditions: ATCCBAA688; M. pinnipedii ATCC BAA-688; agar proportion method; read-out: MIC
in vivo = conditions: ICR, mouse
M. microti ATCC 11152 = test: MIC by agar proportion method, standard strain; type: cell-based; conditions: ATCC11152; M. microti ATCC 11152; agar proportion method; read-out: MIC
[15] = test system: intracellular M. tuberculosis H37Rv; test: microbe, parasite or virus in culture; type: cell-based
[16] = test system: standard strains of nonmycobacterial aerobic and anaerobic bacteria; test: Activity against nonmycobacterial bacteria; type: cell-based; conditions: data not shown
M. tuberculosis Kurono [17] = test: Monotherapy in a mouse model of chronic TB; type: in vivo
[18] = test system: M. tuberculosis ATCC 35822 (H37Rv INH-R); test: MIC by agar proportion method, standard strain; type: cell-based; conditions: Mycobacterium tuberculosis; […]; agar proportion method; read-out: MIC
M. tuberculosis = conditions: cited from earlier work

Structure (SMILES): O=c1nc(N2CCN(CC3CCCCC3)CC2)sc2c([N+](=O)[O-])cc(C(F)(F)F)cc12 [PBTZ169]
- Kp (tissue to plasma partition coefficient), lungs [1]: 0.415

Structure (SMILES): O=C1CCc2c(OC[C@]3(O)CCN(c4c(F)cc(Cl)cc4F)C[C@H]3O)ccc(F)c2N1 [OPC-167832]
- lung CFU compared to the vehicle group, single agent (M. tuberculosis Kurono [2]): significant decrease of lung CFU
- MIC [3]: 0.5 ng/mL (≈ 1.09 nM)
- MIC [4]: 2 ng/mL (≈ 4.38 nM)
- MIC [5]: 1 ng/mL (≈ 2.19 nM)
- MICs for Mycobacterium tuberculosis (overall range) [6]: 0.00024 to 0.002 µg/mL
- concentration at which killing activity was achieved [7]: 0.0005 µg/mL
- interactive effect (mean FIC index) [8]: indifferent effect
- MIC [9]: 0.5 ng/mL (≈ 1.09 nM)
- MIC (M. africanum ATCC 25420): 2 ng/mL (≈ 4.38 nM)
- MIC (M. caprae ATCC BAA-824): 1 ng/mL (≈ 2.19 nM)
- AUCt ([10]; 0.625 mg/kg oral, t: 8h): 505 ng·h/g
- AUCt ([10]; 1.25 mg/kg oral, t: 8h): 909 ng·h/g
- AUCt ([10]; 2.5 mg/kg oral, t: 8h): 2133 ng·h/g
- AUCt ([10]; 5 mg/kg oral, t: 12h): 4742 ng·h/g
- AUCt ([10]; 10 mg/kg oral, t: 12h): 7410 ng·h/g
- MIC (M. bovis ATCC BAA-935): 2 ng/mL (≈ 4.38 nM)
- MIC [11]: 1 ng/mL (≈ 2.19 nM)
- bactericidal activity against intracellular bacilli ([12]; Kurono in THP-1-derived macrophage-like cells, 3 days): killed the intracellular bacilli
- IC90 ([12]; Mycobacterium tuberculosis, THP-1, read-out: 90% inhibitory concentration (IC90)): 2.7 ng/mL (≈ 5.91 nM)
- MIC [13]: 0.5 ng/mL (≈ 1.09 nM)
- MIC [14]: 0.5 ng/mL (≈ 1.09 nM)
- Kp (in vivo): 1.67 to 1.96
- Kp (in vivo; female, po): ~2
- Tmax (in vivo; female, po): 0.5 to 1 h
- AUC(0-t) (in vivo; female, po, 0.625 mg/kg): 283 ng·h/mL
- Cmax (in vivo; female, po, 0.625 mg/kg): 162 ng/g
- Tmax (in vivo; female, po, 0.625 mg/kg): 1 h
- half-life (in vivo; female, po, 0.625 mg/kg, t1/2, lung, 0.625 mg/kg oral, calculated 2 - 8h): 1.4 h
- half-life (in vivo; female, po, 0.625 mg/kg, t1/2, plasma, 0.625 mg/kg oral, calculated 2 - 8h): 1.6 h
- AUC(0-t) (in vivo; female, po, 1.25 mg/kg): 543 ng·h/mL
- Cmax (in vivo; female, po, 1.25 mg/kg): 303 ng/g and 200 ng/mL
- Tmax (in vivo; female, po, 1.25 mg/kg): 1 h
- half-life (in vivo; female, po, 1.25 mg/kg, t1/2, lung, 1.25 mg/kg oral, calculated 4 - 8h): 2 h
- half-life (in vivo; female, po, 1.25 mg/kg, t1/2, plasma, 1.25 mg/kg oral, calculated 2 - 12h): 1.5 h
- AUC(0-t) (in vivo; female, po, 2.5 mg/kg): 1140 ng·h/mL
- Cmax (in vivo; female, po, 2.5 mg/kg): 314 ng/mL and 651 ng/g
- Tmax (in vivo; female, po, 2.5 mg/kg): 0.5 h
- half-life (in vivo; female, po, 2.5 mg/kg, t1/2, lung, 2.5 mg/kg oral, calculated 2 - 8h): 1.3 h
- half-life (in vivo; female, po, 2.5 mg/kg, t1/2, plasma, 2.5 mg/kg oral, calculated 6 - 12h): 1.3 h
- AUC(0-t) (in vivo; female, po, 5 mg/kg): 2650 ng·h/mL
- Cmax (in vivo; female, po, 5 mg/kg): 758 ng/mL and 1360 ng/g
- Tmax (in vivo; female, po, 5 mg/kg): 1 h
- half-life (in vivo; female, po, 5 mg/kg, t1/2, lung, 5 mg/kg oral, calculated 2 - 12h): 2.1 h
- half-life (in vivo; female, po, 5 mg/kg, t1/2, plasma, 5 mg/kg oral, calculated 2 - 12h): 2.1 h
- AUC(0-t) (in vivo; female, po, 10 mg/kg): 3780 ng·h/mL
- Cmax (in vivo; female, po, 10 mg/kg): 1090 ng/mL and 2220 ng/g
- Tmax (in vivo; female, po, 10 mg/kg): 1 h
- half-life (in vivo; female, po, 10 mg/kg, t1/2, lung, 10 mg/kg oral, calculated 6 - 12h): 2.1 h
- half-life (in vivo; female, po, 10 mg/kg, t1/2, plasma, 10 mg/kg oral, calculated 2 - 12h): 1.6 h
- half-life (in vivo; female, po, half-life (t1/2), plasma, oral doses 0.625 to 10 mg/kg): 1.3 to 2.1 h
- MIC (M. microti ATCC 11152): 1 ng/mL (≈ 2.19 nM)
- concentration at which intracellular bactericidal activity was saturated [15]: ≥ 0.004 µg/mL
- bactericidal activity against intracellular bacilli ([15]; H37Rv in THP-1-derived macrophage-like cells, 3 days): killed the intracellular bacilli
- IC90 ([15]; Mycobacterium tuberculosis, H37RV, THP-1, read-out: 90% inhibitory concentration (IC90)): 4.8 ng/mL (≈ 10.5 nM)
- activity against nonmycobacterial aerobic and anaerobic bacteria [16]: minimal or no activity
- lung CFU compared to the vehicle group (M. tuberculosis Kurono [17]; 0.625, 1.25, 2.5, 5 and 10 mg/kg oral daily, 4 weeks, ICR female mice): significantly reduced lung CFU
- minimum effective dose (M. tuberculosis Kurono [17]; mouse model of chronic TB, oral): 0.625 mg/kg
- MIC [18]: 0.24 ng/mL (≈ 0.525 nM)

Structure (SMILES): CCOC(=O)NC(=O)c1ccsc1NC(=O)c1nc2ccccc2s1 [TCA1]
- MIC (M. tuberculosis): 190 ng/mL (≈ 506 nM)
